Measured values reported in patent US11242347B2, “2-phenyl-3,4-dihydropyrrolo[2,1-Ff] [1,2,4]triazinone derivatives as phosphodiesterase inhibitors and uses thereof” (TOPADUR PHARMA AG, priority 2015, dated 2022).
Read-outs that look alike come from different tables or passages of the source.

Legend:
[1] = target: human phosphodiesterase-5 (PDE5 enzyme isolated from human platelets) (Homo sapiens (Human), UniProt O76074); assay: PDE5 assay: formation of 5′GMP from cGMP (SPA)
Protocol: Evaluation of the effects of compounds of the present invention on the activity of the human phosphodiesterase-5 quantified by measuring the formation of 5′GMP from cGMP using PDE5 enzyme isolated from human platelets.
Thereafter, the reaction is initiated by addition of the enzyme and the mixture is incubated for 60 min at 22° C.
For basal control measurements, the enzyme is omitted from the reaction mixture. Following incubation SPA beads are added. After 20 min at 22° C. under shaking, the amount of [3H]5′GMP is quantified with a scintillation counter (Topcount, Packard).
The standard inhibitory reference compound is dipyridamole, which is tested in each experiment at several concentrations to obtain an inhibition curve from which its IC50 value is calculated.

[2] = test system: phenylephrine-precontracted rat aortic rings; assay: Isometric tension studies: relaxation of phenylephrine-precontracted rat aortic rings; conditions: for IC40: concentration where 40% relaxation was achieved; for EC50 / Emax: Rattus norvegicus
Protocol: After 1 week of acclimatization, rats were anesthetized. Appropriate depth of anesthesia was determined by the absence of the leg flexor response and the eyelid reflex. Then, the thorax was quickly opened by a midline incision, and the rat was sacrificed by cutting the heart and exsanguination.
Indomethacin (1 μM) was added to the saline solution.
Eligible rings were then washed several times to restore tension to the baseline level.
In some experiments, the entire length of the thoracic aorta was functionally denuded of the endothelial layer by gently scraping the luminal surface with a 1.5 mm glass rod. […] Rings were then washed several times to restore tension to the baseline level.
Indomethacin (1 μM) was added to the saline solution. […] Only vessels with at least 60% relaxation to 1 μM ACh from the tension with 300 nM were eligible.
The preparations were allowed to equilibrate for 60 min in Krebs with high glucose (25 mM) before contraction to a new single concentration of PE (300 nM).
Finally, sodium nitroprusside (0.1 mM) was added, in order to obtain maximum relaxation of arterial rings.
The amount of relaxation (percent values as means±SEM) was quantified as percent relaxation from the tension (plateau) achieved with phenylephrine.
Data are presented as mean±SEM. Statistical analysis of results has been performed by analysis of variance (ANOVA) either parametric or non-parametric (Kruskal-Wallis), followed by Bonferroni test or Dunn tests as appropriate (GraphPad Software Inc, San Diego, Calif., USA). Significance was accepted when P<0.05. Non-linear regression was conducted with GraphPad Software).

[3] = 5.0E−09M, percent inhibition of the control enzyme activity

## CCCc1c(/C=N/O)c(C)c2c(=O)[nH]c(-c3cc(S(=O)(=O)N4CCN(CCCO)CC4)ccc3OCC)nn12 [Compound 1an, (E)-2-(2-ethoxy-5-(4-(3-hydroxypropyl)piperazin-1-ylsulfonyl)phenyl)-5-methyl-4-oxo-7-propyl-3,4-dihydropyrrolo[1,2-f][1,2,4]triazine-6-carbaldehyde oxime]
[1]; [3]
  % inhibition at 5.0E−09M: 84.9%

## CCCc1cc(C)c2c(=O)[nH]c(-c3cc(S(=O)(=O)N4CCN(CCCO)CC4)ccc3OCC)nn12 [Compound 1ap, 2-(2-ethoxy-5-((4-(3-hydroxypropyl)piperazin-1-yl)sulfonyl)phenyl)-5-methyl-7-propylpyrrolo [2,1-f][1,2,4]triazin-4(3H)-one]
[1]
  IC50: 2.8 nM
[1]; [3]
  % inhibition at 5.0E−09M: 69.2%

## CCCc1c(CO)c(C)c2c(=O)[nH]c(-c3cc(S(=O)(=O)N4CCN(C)CC4)ccc3OCC)nn12 [Compound 1b, 2-(2-ethoxy-5-((4-methylpiperazin-1-yl)sulfonyl)phenyl)-6-(hydroxymethyl)-5-methyl-7-propylpyrrolo[2,1-f][1,2,4]triazin-4(3H)-one]
[1]
  IC50: 12 nM
[1]; [3]
  % inhibition at 5.0E−09M: 34.0%

## (E)-2-(4-(4-ethoxy-3-(6-((2-hydroxyethoxyimino)methyl)-5-methyl-4-oxo-7-propyl-3,4-dihydropyrrolo[1,2-f][1,2,4]triazin-2-yl)phenylsulfonyl)piperazin-1-yl)ethyl nitrate [Compound 1ak]
[1]
  % inhibition at 5.0E−09M: 8.3%

## CCCc1c(C(O)CC#N)c(C)c2c(=O)[nH]c(-c3cc(S(=O)(=O)N4CCN(C)CC4)ccc3OCC)nn12 (stereo not drawn) [Compound 1u, 3-(2-(2-ethoxy-5-((4-methylpiperazin-1-yl)sulfonyl)phenyl)-5-methyl-4-oxo-7-propyl-3,4-dihydropyrrolo[2,1-f][1,2,4]triazin-6-yl)-3-hydroxy propanenitrile]
[1]
  IC50: 1.5 nM
[1]; [3]
  % inhibition at 5.0E−09M: 50.3%

## (E)-2-(4-(4-ethoxy-3-(6-((methoxyimino)methyl)-5-methyl-4-oxo-7-propyl-3,4-dihydropyrrolo[1,2-f][1,2,4]triazin-2-yl)phenylsulfonyl)piperazin-1-yl)ethyl nitrate [Compound 1ai]
[1]
  % inhibition at 5.0E−09M: 0.3%

## CCCc1c(/C=N/O)c(C)c2c(=O)[nH]c(-c3cc(S(=O)(=O)N4CCN(CCO[N+](=O)[O-])CC4)ccc3OCC)nn12 [Compound 1af, (E)-2-(4-((4-ethoxy-3-(6-((hydroxyimino)methyl)-5-methyl-4-oxo-7-propyl-3,4-dihydropyrrolo[2,1-f][1,2,4]triazin-2-yl)phenyl)sulfonyl)piperazin-1-yl)ethyl nitrate]
[1]; [3]
  % inhibition at 5.0E−09M: 74.5%

## CCCc1c(/C=N/O)c(C)c2c(=O)[nH]c(-c3cc(S(=O)(=O)N4CCN(CCCO[N+](=O)[O-])CC4)ccc3OCC)nn12 [Compound 1ao, (E)-3-(4-(4-ethoxy-3-(6-((hydroxyimino)methyl)-5-methyl-4-oxo-7-propyl-3,4-dihydropyrrolo[1,2-f][1,2,4]triazin-2-yl)phenylsulfonyl)piperazin-1-yl)propyl nitrate]
[1]
  IC50: 12 nM
[1]; [3]
  % inhibition at 5.0E−09M: 70.6%

## CCCOc1ccc(S(=O)(=O)N2CCN(C)CC2)cc1-c1nn2c(CCC)c(/C=N/OC)c(C)c2c(=O)[nH]1 [Compound 1o, (E)-5-methyl-2-(5-((4-methylpiperazin-1-yl)sulfonyl)-2-propoxyphenyl)-4-oxo-7-propyl-3,4-dihydropyrrolo[2,1-f][1,2,4]triazine-6-carbaldehyde O-methyl oxime]
[1]; [3]
  % inhibition at 5.0E−09M: 83.0%

## CCCc1c(C(O)CC(=O)NO)c(C)c2c(=O)[nH]c(-c3cc(S(=O)(=O)N4CCN(C)CC4)ccc3OCC)nn12 (stereo not drawn) [Compound 1t, 3-(2-(2-ethoxy-5-((4-methylpiperazin-1-yl)sulfonyl)phenyl)-5-methyl-4-oxo-7-propyl-3,4-dihydropyrrolo[2,1-f][1,2,4]triazin-6-yl)-N,3-dihydroxy propanamide]
[1]; [3]
  % inhibition at 5.0E−09M: 44.9%

## CCCc1c(/C=N/O)c(C)c2c(=O)[nH]c(-c3cc(S(=O)(=O)N4CCC(CCO)CC4)ccc3OCC)nn12 [Compound 1al, (E)-2-(2-ethoxy-5-(4-(2-hydroxyethyl)piperidin-1-ylsulfonyl)phenyl)-5-methyl-4-oxo-7-propyl-3,4-dihydropyrrolo[1,2-f][1,2,4]triazine-6-carbaldehyde oxime]
[1]; [3]
  % inhibition at 5.0E−09M: 84.9%

## CCCc1c(C=O)c(C)c2c(=O)[nH]c(-c3cc(S(=O)(=O)N4CCN(CCO)CC4)ccc3OCC)nn12 [Compound 1w, 2-(2-ethoxy-5-((4-(2-hydroxyethyl)piperazin-1-yl)sulfonyl)phenyl)-5-methyl-4-oxo-7-propyl-3,4-dihydropyrrolo[2,1-f][1,2,4]triazine-6-carbaldehyde]
[1]; [3]
  % inhibition at 5.0E−09M: 75.5%

## CCCc1c(/C=N/O)c(C)c2c(=O)[nH]c(-c3cc(S(=O)(=O)N4CCC(CCO[N+](=O)[O-])CC4)ccc3OCC)nn12 [Compound 1am, (E)-2-(1-(4-ethoxy-3-(6-((hydroxyimino)methyl)-5-methyl-4-oxo-7-propyl-3,4-dihydropyrrolo[1,2-f][1,2,4]triazin-2-yl)phenylsulfonyl)piperidin-4-yl)ethyl nitrate]
[1]
  % inhibition at 5.0E−09M: 25.1%
  IC50: 66 nM

## CCCOc1ccc(S(=O)(=O)N2CCN(CCO)CC2)cc1-c1nn2c(CCC)c(CO)c(C)c2c(=O)[nH]1 [Compound 1n, 2-(5-((4-(2-hydroxyethyl)piperazin-1-yl)sulfonyl)-2-propoxyphenyl)-6-(hydroxymethyl)-5-methyl-7-propylpyrrolo[2,1-f][1,2,4]triazin-4(3H)-one]
[1]; [3]
  % inhibition at 5.0E−09M: 33.0%

## CCCOc1ccc(S(=O)(=O)N2CCC(CCO[N+](=O)[O-])CC2)cc1-c1nn2c(CCC)c(/C=N\O)c(C)c2c(=O)[nH]1 [Compound 1aq, (Z)-2-(1-((3-(6-((hydroxyimino)methyl)-5-methyl-4-oxo-7-propyl-3,4-dihydropyrrolo[2,1-f][1,2,4]triazin-2-yl)-4-propoxyphenyl)sulfonyl)piperidin-4-yl)ethyl nitrate]
[1]; [3]
  % inhibition at 5.0E−09M: 1.3%

## CCCc1c(/C=N/O)c(C)c2c(=O)[nH]c(-c3cc(S(=O)(=O)N4CCN(C)CC4)ccc3OCC)nn12 [Compound 1a, (E)-2-(2-ethoxy-5-((4-methylpiperazin-1-yl)sulfonyl)phenyl)-5-methyl-4-oxo-7-propyl-3,4-dihydropyrrolo[2,1-f][1,2,4]triazine-6-carbaldehyde oxime]
[1]; [3]
  % inhibition at 5.0E−09M: 77.6%

## CCCc1nn(C)c2c(=O)[nH]c(-c3cc(S(=O)(=O)N4CCN(C)CC4)ccc3OCC)nc12 [sildenafil, reference compound]
[2]; High Glucose (25 mM)
  IC40: 826.989 nM
  EC50: 20.4 nM
  Emax: 49.1%
[2]; Intact Endothelium (E+)
  IC40: 0.194 nM
  EC50: 0.186 nM
  Emax: 79.3%
[2]; L-NAME (100 μM)
  IC40: 95.659 nM
  EC50: 5.8 nM
  Emax: 51.4%
[2]; Without Endothelium
  EC50: 20.6 nM
  Emax: 36.4%
  IC40: >1000 nM
